Assays:
[1] = Stability test (2): 9-day stability in an airtight container at 70° C.; assay type: physicochemical; conditions: potency by liquid chromatography
Description: Four lots of the isopropyl alcohol and water-containing crystal of compound (I) as obtained in Example 8 (2) were used.
The 9-day stability of each test sample in an airtight container at 70° C. was determined. The potency of each test sample was determined by liquid chromatography and the percentage residue was calculated.

[2] = Stability test (1): one-month stability in an airtight container at 40° C.; assay type: physicochemical; conditions: potency by liquid chromatography
Description: The water-containing crystals and isopropyl alcohol and water-containing crystals of Compound (I) or a salt thereof obtained in Examples 5, 7 and 8(1) were tested.
The one-month stability of each test sample in an airtight container at 40° C. was evaluated.
The potency of each test sample was determined by liquid chromatography and the percentage residue of Compound (I) or a salt thereof was calculated.

[3] = Urinary excretion after oral administration; assay type: in vivo; conditions: male, SD, rat, urine; rats fasted overnight, 20 mg/kg oral, suspended in 0.5% methylcellulose; disk plate diffusion, Bacillus subtilis ATCC 6633; read-out: Recovery in 24-hrs urine (%)
Description: (C) Urinary Excretion Test Method Male SD rats (6-7 weeks old) from JCL were used. The test compound was suspended in 0.5% methylcellulose solution. The rats were fasted overnight before administration of 20 mg/kg. The urine was collected in the time slots of 0-6 and 6-24 hours after oral administration and the urinary recovery was determined by the disk plate diffusion method using Bacillus subtilis ATCC 6633 as the test organism and sodium citrate agar (0.8% sodium citrate, 0.5% polypeptone, 0.3% beef extract, and 1.0% agar) as the test medium.

[4] = Stability test of the crystal of Example 2 (conditions not stated); assay type: physicochemical

Row | SMILES | Residue (%) [1] [%] | Residue (%) [2] [%] | further results
1 | Nc1nc(/C(=N/O)C(=O)NC2C(=O)N3C(C(=O)O)=C(SCc4cn[nH]c4)CSC23)cs1 (stereo not drawn) [Example 35534OP] | 99.2 | – | –
2 | Nc1nc(/C(=N/O)C(=O)N[C@@H]2C(=O)N3C(C(=O)O)=C(SCc4cn[nH]c4)CS[C@H]23)cs1 [Example 8(1), 7β-[2-(2-aminothiazol-4-yl)-2-(Z)-(hydroxyimino)acetamido]-3-[(pyrazol-4-yl)methylthio]-3-cephem-4-carboxylic acid] | – | 98.5 | –
3 | Nc1nc(/C(=N/O)C(=O)NC2C(=O)N3C(C(=O)O)=C(SCc4cn[nH]c4)CSC23)cs1 (stereo not drawn) [Example 37914XP] | 98.0 | – | –
4 | Nc1nc(/C(=N/O)C(=O)N[C@@H]2C(=O)N3C(C(=O)O)=C(SCc4cn[nH]c4)CS[C@H]23)cs1 [Example 7, 7β-[2-(2-aminothiazol-4-yl)-2-(Z)-(hydroxyimino)acetamido]-3-[(pyrazol-4-yl)methylthio]-3-cephem-4-carboxylic acid] | – | 99.2 | –
5 | Nc1nc(/C(=N/O)C(=O)N[C@@H]2C(=O)N3C(C(=O)O)=C(SCc4cn[nH]c4)CS[C@H]23)cs1 [Example 5, 7β-[2-(2-amino-thiazol-4-yl)-2-(Z)-(hydroxyimino)acetamido]-3-[(pyrazol-4-yl)methylthio]-3-cephem-4-carboxylic acid] | – | 98.2 | –
6 | Nc1nc(/C(=N/O)C(=O)N[C@@H]2C(=O)N3C(C(=O)O)=C(SCc4cn[nH]c4)CS[C@H]23)cs1 [Compound (I), 7β-[2-(2-aminothiazol-4-yl)-2-(Z)-(hydroxyimino)acetamido]-3-[(pyrazol-4-yl)methylthio]-3-cephem-4-carboxylic acid] | – | – | dose excreted [3]: 50%
7 | Nc1nc(/C(=N/O)C(=O)NC2C(=O)N3C(C(=O)O)=C(SCc4cn[nH]c4)CSC23)cs1 (stereo not drawn) [Example 35414OP] | 98.7 | – | –
8 | Nc1nc(/C(=N/O)C(=O)NC2C(=O)N3C(C(=O)O)=C(SCc4cn[nH]c4)CSC23)cs1 (stereo not drawn) [Example 35434OP] | 98.0 | – | –
9 | Nc1nc(/C(=N/O)C(=O)N[C@@H]2C(=O)N3C(C(=O)O)=C(SCc4cn[nH]c4)CS[C@H]23)cs1 [Example 2, 7β-[2-(2-aminothiazol-4-yl)-2-(Z)-(hydroxyimino)acetamido]-3-[(pyrazol-4-yl)methylthio]-3-cephem-4-carboxylic acid] | – | – | stability in the stability test [4]: stable

From US20010056089A1, “Novel crystal of cephalosporin compound” (FUJISAWA PHARMACEUTICAL CO., LTD., priority 1995, published 2001)
